Test results from patent US20230257710A1, “NATURAL KILLER CELL HAVING CONTROLLED ONCOLOGY-RELEATED GENE EXPRESSION, AND USE THEREOF” (SUNGKWANG MEDICAL FOUNDATION, priority 2020, published 2023).

Test system: A2780cis xenograft
Type: in vivo, NSG mice
Procedure: The efficacy was evaluated by confirming the growth inhibitory effect of natural killer cells (pNK) cultured by the culture method according to one aspect as an immuno-anticancer agent. An A2780cis xenograft mouse model was prepared by subcutaneously injecting the […] ovarian cancer cell line A2780cis into the fat pad of 7-week-old NSG mice in an amount of 2×10^6 (cells). After ovarian cancer cell lines were injected, mice with tumors were randomly grouped on day 3: a group treated with intraperitoneal injection of cisplatin at 1 mg/kg, once/week; a group treated with intravenous injected of natural killer cells according to one aspect in the number of 1×10^7 (cells), 2 times/week; and a control group treated with the injection of PBS (FIG. 8). After injection of the ovarian cancer cell line, tumor size and body weight were measured daily.

For `N.N.[Cl][Pt][Cl]` [cisplatin], the “cancer cell growth inhibitory effect” value (compared to the control group (PBS), A2780cis xenograft NSG mice) was “about 55%” and the “change in body weight” value (mouse, in vivo) was “no significant change in body weight”.
